According to US12533330B2, “(2S)-2-aminopentanethioic s-acid for use as medicament and in therapy of amyotrophic lateral sclerosis” (MASSEY VENTURES LIMITED, priority 2020, dated 2026):

How the values were obtained:
Format in all cases: in vivo
[1] = tested on: FUS[1-359]-tg mouse line (FUS-tg); test: Malondialdehyde (MDA) concentration in spinal cord of FUS-tg mice; conditions: 50 mg/kg/day via drinking water, one-way ANOVA and Tukey's test
Text: A transgenic FUS[1-359]-tg mouse line (FUS-tg) was used to test the efficacy of the substance of formula (I) in the therapy of amyotrophic lateral sclerosis according to the guidelines set for ALS preclinical studies. Ludolph A C et al. Guidelines for preclinical animal research in ALS/MND: A consensus meeting. Amyotroph Lateral Scler. 2010; 11:38-45. Mutations in DNA/RNA-binding factor (fused-in-sarcoma) FUS cause ALS in humans. The FUS-tg mouse model recapitulates core hallmarks of human ALS in the spinal cord, including neuroinflammation and neurodegeneration, ensuing muscle atrophy and paralysis. Shelkovnikova T A et al. Fused in sarcoma (FUS) protein lacking nuclear localization signal (NLS) and major RNA binding motifs triggers proteinopathy and severe motor phenotype in transgenic mice. J Biol Chem. 2013; 288:25266-25274. Lutz C. Mouse models of ALS: Past, present and future. Brain Res. 2018; 1693:1-10. de Munter J et al. Neuro-Cells therapy improves motor outcomes and suppresses inflammation during experimental syndrome of amyotrophic lateral sclerosis in mice. CNS Neurosci Ther. 2020; 26(5):504-517. […]
The concentration of malondialdehyde (MDA), a marker of oxidative stress, was measured in the spinal cord of FUS-tg mice treated with vehicle or substance of formula (I) in comparison with wild type controls. […]

[2] = tested on: FUS[1-359]-tg mouse line (FUS-tg); test: Rotarod test in FUS-tg mouse ALS model; conditions: week 5, via drinking water, one-way ANOVA and Tukey's test
Text: (§1) A transgenic FUS[1-359]-tg mouse line (FUS-tg) was used to test the efficacy of the substance of formula (I) in the therapy of amyotrophic lateral sclerosis according to the guidelines set for ALS preclinical studies. Ludolph A C et al. Guidelines for preclinical animal research in ALS/MND: A consensus meeting. Amyotroph Lateral Scler. 2010; 11:38-45. Mutations in DNA/RNA-binding factor (fused-in-sarcoma) FUS cause ALS in humans. The FUS-tg mouse model recapitulates core hallmarks of human ALS in the spinal cord, including neuroinflammation and neurodegeneration, ensuing muscle atrophy and paralysis. […] J Biol Chem. 2013; 288:25266-25274. Lutz C. Mouse models of ALS: Past, present and future. […] CNS Neurosci Ther. 2020; 26(5):504-517.
(§2) The substance (I) and the substance (IX) represent (2S)- and (2R)-enantiomers of 2-aminopentanethioic S-acid, respectively. The (2R)-enantiomer (IX) was included to the study to clarify importance of (S)- and (R)-configurations of 2-aminopentanethioic S-acid during the therapy of ALS.

[3] = tested on: FUS[1-359]-tg mouse line (FUS-tg); test: Onset of paralysis in FUS-tg mouse ALS model; conditions: for percentage of FUS-tg mice with signs of paralysis on day 95: FUS-tg male mice, six weeks via drinking water from age nine weeks, (I) and (IX) 50 mg/kg/day, Riluzole 8 mg/kg
Text: as §1, §2
The onset of paralysis, a core ALS symptom, was recorded for each FUS-tg mouse.

Structure (SMILES) | MDA levels in the spinal cord vs. vehicle-treated FUS-tg mice [1] | latency to fall in the rotarod test vs. vehicle-treated FUS-tg mice [2] | percentage of FUS-tg mice with signs of paralysis on day 95 [3] [%] | significance of percentage of mice with signs of paralysis on the 95th day vs. vehicle ([3]; FUS-tg mice, day 95, Fisher test vs. vehicle)
CCC[C@H](N)C(=O)S [substance (I), (2S)-2-aminopentanethioic S-acid] | significant reduction of the MDA levels | significantly longer latency to fall | 16 | significantly lower
CCC[C@@H](N)C(=O)S [substance (IX), (2R)-2-aminopentanethioic S-acid, reference compound] |  | no significant difference | 43 | 
